{"source": "patent US20230364277A1", "about": "“E-SELECTIN TARGETING AGENTS” (GLYCOMIMETICS, INC., priority 2020, published 2023)", "tested_on": "E-selectin expression on HUVEC", "test": "Induction of E-selectin expression on HUVEC by TNFα (flow cytometry, anti-E-selectin antibody)", "type": "cell-based, human", "settings": "with TNFα stimulation", "procedure": "Subsequent studies were performed to investigate the ability of liposomes containing Compound 3 to recognize and bind to cells under conditions where E-selectin is expressed. For these liposomes with and without Compound 3 were prepared with a fluorescent phospholipid membrane marker (Composition 4 and Composition 3, respectively) allowing for detection by flow cytometry. Liposomes were incubated for 60 min at 37° C. with cultures of human umbilical vein endothelial cells (HUVEC) pretreated in media deficient in TNFα or supplemented with TNFα to induce E-selectin expression. Association of fluorescein labeled liposomes with cell preparations by flow cytometry was then determined.\nThe flow cytometry-based assay used liposomes containing 0% or 5% Compound 3 (L4 and L5, respectively). Initial studies defined that only TNFα-stimulated HUVEC but not unstimulated HUVEC express E-selectin."}
{"substance": "TNFα", "values": [{"measurement": "HUVEC express E-selectin", "value": 88.696, "unit": "%"}]}
